Results as given in US4800197A, “Anti-acne composition” (Richardson-Vicks Inc., priority 1987, dated 1989).

Columns and labels:
corneocytes = conditions: C. Huber et al, Arch. Derm. Res. 257, 293-297, 1977; cited from earlier work
[1] = in vitro human skin
Source text: Excised human skin samples are obtained at autopsy and maintained under sterile conditions until used. […] The diffusion cell is composed of two compartments: the lower chamber is made of Plexiglass and the top is made of Teflon. The skin sample is mounted with the stratum corneum side exposed to the air and held on to the Teflon top with a rubber 0-ring; a tight seal between the two compartments is achieved by tightening the set screws. The cell has an effective diffusional area of 5.08 cm^2 and the dermis side of the skin is constantly bathed by filling the receptor compartment with 40 ml of isotonic saline. Adequate mixing of the receptor phase is accomplished with a magnet driven Teflon-coated stir bar moved by appropriate motor means located below the cell bath. The whole diffusion cell assembly is immersed in a water bath maintained at 30° C. using a circulating water bath. […] At hourly intervals over a period of seven hours, a one milliliter sample of the receptor fluid is withdrawn and analyzed for radioactive content by liquid scintillation counting means (Packard Tri-Carb model No. 460). […]
At the end of the seven hour period the skin sample is removed from the diffusion cell, trimmed of excess skin and glued with cyanoacrylate glue to a glass plate. […] Ten successive adhesive tape strippings are then taken and the salicylic acid content per strip determined. […]

SMILES	reduction in intercellular cohesion of the corneocytes (in words) (corneocytes)	deposition of salicylic acid in the stratum corneum (in words) [1]	rate of penetration of salicylic acid (in words) [1]
O=C(O)c1ccccc1O [Salicylic acid]	causes a reduction in intercellular cohesion of the corneocytes	–	–
CCCCCCCCCCCCOS(=O)(=O)[O-].[Na+] [surfactant D, sodium lauryl sulfate]	–	marked decrease in deposition of salicylic acid in the stratum corneum	marked increase in the penetration rate through the skin
